What was measured:
[1] = high doses; cited from earlier work
[2] = system: PC12 cells that express mutant G93A SOD1 as a YFP fusion protein; assay: high throughput cytotoxicity protection assay
Description: This idea was tested by examining the sensitivity of PC12 cells to SOD1 aggregates in the presence and absence of proteasome inhibitor MG132. PC12 cells expressing no SOD1, wild type SOD1, G85R SOD1 or G93A SOD1 were grown with or without MG132 (FIG. 1). […] The ability of protein aggregates to induce cell death was examined by treating G93A SOD1-expressing cells with MG132 for 24 h, removing the MG132 by washing and assaying cell viability after another 24 h.
PC12 cells expressing G93A SOD1 were treated with 100 nM MG132 with or without co-treatment with geldanamycin or radicicol.

[3] = system: rats with unilateral lesions in the substantia nigra; settings: at 100 to 500 times larger doses than the (+) enantiomer; cited from earlier work

(−) butaclamol
effect on epinephrine-induced mortality [1]: devoid of any such activity
activity in the protection assay [2]: only the eutomer (+butaclamol) showed activity
behavioral activity [3]: devoid of behavioral activity
